Results published in paper PMC10650415, “Synthesis of Tetracyclic Spirooxindolepyrrolidine-Engrafted Hydantoin Scaffolds: Crystallographic Analysis, Molecular Docking Studies and Evaluation of Their Antimicrobial, Anti-Inflammatory and Analgesic Activities” (Molecules, 2023).
≈ marks a conversion by molar mass, not a printed value.

Columns and labels:
[1] = biological target: T1, Lipoxygenase-5 (LOX-5) enzyme (Homo sapiens, UniProt P09917); experiment: In vitro lipoxygenase (LOX-5) inhibitory assay; assay type: biochemical; conditions: mean ± SEM, n = 5; read-out: IC50 (LOX-5 inhibition) (converted)
T1 construct: purchased sigma 437996-500U
T1 sequence (P09917 1-674): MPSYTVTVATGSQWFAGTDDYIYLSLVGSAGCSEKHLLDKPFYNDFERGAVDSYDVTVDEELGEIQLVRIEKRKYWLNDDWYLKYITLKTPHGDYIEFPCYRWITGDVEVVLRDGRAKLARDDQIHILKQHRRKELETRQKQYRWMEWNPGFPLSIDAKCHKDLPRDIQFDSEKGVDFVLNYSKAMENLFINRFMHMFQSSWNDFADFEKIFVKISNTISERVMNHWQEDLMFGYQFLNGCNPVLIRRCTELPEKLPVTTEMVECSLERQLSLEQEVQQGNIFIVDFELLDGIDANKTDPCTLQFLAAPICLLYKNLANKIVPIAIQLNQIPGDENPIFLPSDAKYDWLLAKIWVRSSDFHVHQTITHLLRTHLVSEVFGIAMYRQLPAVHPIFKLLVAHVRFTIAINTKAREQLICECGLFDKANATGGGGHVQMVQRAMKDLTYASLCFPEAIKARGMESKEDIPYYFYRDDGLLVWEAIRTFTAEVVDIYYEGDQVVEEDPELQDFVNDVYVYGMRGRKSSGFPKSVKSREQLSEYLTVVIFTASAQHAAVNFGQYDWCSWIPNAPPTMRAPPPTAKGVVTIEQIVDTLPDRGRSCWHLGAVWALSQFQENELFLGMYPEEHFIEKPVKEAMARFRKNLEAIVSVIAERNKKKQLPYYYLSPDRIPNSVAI
Experimental: Lipoxygenases are a family of monomeric proteins that catalyze oxidation of polyunsaturated fatty acids (PUFA) (linoleic, linolenic and arachidonic acid) to produce hydroperoxides. Fractions’ anti-LOX activity was also measured as inhibition of linoleic acid’s peroxidation to hydroperoxylinoleic acid.
To evaluate the prospects of the newly synthesized spirooxindoles as promising drug candidates, we first studied their inhibitory potency against the Lipoxygenase-5 (LOX-5) enzyme.

C. kreusei ATCC 6258 = experiment: MFC by the agar method; conditions: for MFC/MIC ratio: C. Krusei, ≤ 4 fungicidal, >4 fungistatic; for MFC: Pichia kudriavzevii, ATCC6258
Experimental: (§2) To further determine the killing efficiency of the synthesized spiropyrrolidines against selected strains, the minimum bactericidal concentration (MBC) and the minimum fungicidal concentration (MFC) were assessed by the agar method [54].

[2] = test system: Staphylocoocus aureus ATCC 25923; experiment: MIC, in vitro micro diffusion method; assay type: cell-based; conditions: Staphylococcus aureus, ATCC25923; S. aureus ATCC 25923
Excerpt: (§1) In this part, the spiropyrrolidines 4a–m were selected to be screening for their antimicrobial activities, using in vitro micro diffusion method, against multiple bacterial strains (Staphylocoocus aureus ATCC 25923, Escherichia coli ATCC 25922, Pseudomonas aeruginosa ATCC 27950, Micrococcus luteus NCIMB 8166), and two pathogenic reference yeasts namely Candida albicans ATCC 90028 and Candida kreusei ATCC 6258.

[3] = test system: Candida kreusei ATCC 6258; experiment: MIC, in vitro micro diffusion method; assay type: cell-based; conditions: C. krusei ATCC 6258
Excerpt: as §1

[4] = test system: Candida albicans ATCC 90028; experiment: MIC, in vitro micro diffusion method; assay type: cell-based; conditions: ATCC90028, C. albicans ATCC 90028
Excerpt: as §1

E. coli ATCC 25922 = experiment: MBC by the agar method
Experimental: as §2

C. albicans ATCC 90028 = experiment: MFC by the agar method; conditions: for MFC/MIC ratio: C. Albicans, ≤ 4 fungicidal, >4 fungistatic; for MFC: Candida albicans, ATCC90028
Experimental: as §2

S. aureus ATCC 25923 = experiment: MBC by the agar method; conditions: Staphylococcus aureus, ATCC25923
Experimental: as §2

M. luteus NCIMB 8166 = experiment: MBC by the agar method; conditions: Micrococcus luteus, NCIMB8166
Experimental: as §2

P. aeruginosa ATCC 27950 = experiment: MBC by the agar method; conditions: Pseudomonas aeruginosa, ATCC27950
Experimental: as §2

[5] = test system: Micrococcus luteus NCIMB 8166; experiment: MIC, in vitro micro diffusion method; assay type: cell-based; conditions: NCIMB8166, M. luteus NCIMB 8166
Excerpt: as §1

[6] = test system: Escherichia coli ATCC 25922; experiment: MIC, in vitro micro diffusion method; assay type: cell-based; conditions: ATCC25922, E. coli ATCC 25922
[7] = parameters: method as in doi:10.1002/slct.201901228; conditions: read-out: IC50 (anti-inflammatory efficacy); cited from earlier work
[8] = Escherichia coli, ATCC25922, E. coli ATCC 25922

SMILES	IC50 [1]	MFC/MIC ratio (C. kreusei ATCC 6258)	MFC (C. kreusei ATCC 6258)	MIC [2]	MIC [3]	MIC [4]	MBC (E. coli ATCC 25922; [8])	melting point	MFC/MIC ratio (C. albicans ATCC 90028)	MFC (C. albicans ATCC 90028)	MBC (S. aureus ATCC 25923)	MBC (M. luteus NCIMB 8166)	MBC (P. aeruginosa ATCC 27950)	MIC [5]	MBC (E. coli ATCC 25922; E. coli ATCC 25922)	MIC [6]	IC50 [7]
O=C1NC(=O)[C@]2(N1)[C@@H](c1ccc(Cl)cc1)[C@H](c1ccccc1)N[C@@]21C(=O)Nc2ccccc21 (racemic) [4e]	3860 µM	≤ 4	46.9 mg/L (≈ 102 µM)	46.9 mg/L (≈ 102 µM)	46.9 mg/L (≈ 102 µM)	23.4 mg/L (≈ 51.1 µM)	750 mg/L (≈ 1630 µM)	235 °C	≤ 4	23.4 mg/L (≈ 51.1 µM)	93.8 mg/L (≈ 204 µM)	> 1500 mg/L	188 mg/L (≈ 409 µM)	–	–	–	–
O=C1NC(=O)[C@]2(N1)[C@@H](c1ccccc1O)[C@H](c1ccccc1)N[C@@]21C(=O)Nc2ccc(Cl)cc21 (stereo in doubt) [4m]	2990 µM	≤ 4	93.8 mg/L (≈ 197 µM)	–	–	–	188 to 374 mg/L (≈ 395 to 788 µM)	223 °C	≤ 4	93.8 mg/L (≈ 197 µM)	93.8 mg/L (≈ 197 µM)	188 mg/L (≈ 395 µM)	188 mg/L (≈ 395 µM)	93.8 mg/L (≈ 197 µM)	375 mg/L (≈ 790 µM)	188 mg/L (≈ 395 µM)	–
O=C1/C(=C/c2cccc(F)c2)CCC[C@@]12[C@H](c1cccc(F)c1)[C@@H]1CSCN1[C@]21C(=O)Nc2ccccc21 [IVc]	–	–	–	–	–	–	–	–	–	–	–	–	–	–	–	–	2.4 ± 1.3 µM
CC(C)Cc1ccc(C(C)C(=O)O)cc1 (stereo not shown) [ibuprofen]	–	–	–	–	–	–	–	–	–	–	–	–	–	–	–	–	11.2 ± 1.9 µM
